This passage reports IC50 results from US11912723B2, “KRAS modulators and uses thereof” (Quanta Therapeutics, Inc., priority 2022, dated 2024).

The target in assay [1] is T1, GST-tagged KRAS G12D (2-169) (Homo sapiens, UniProt P01116, G12D).
T1 construct: GST-tagged KRAS^G12D (2-169, Reaction Biology, MSC-11-539); purchased Reaction Biology MSC-11-539 (KRAS G12D); MSC-11-502 (SOS1cat)
Nature of the assay: Nucleotide exchange assay (NEA), HTRF of SOS-mediated GTP-DY-647P1 binding. The note with it: 5 nM GST-KRAS G12D, 20 nM SOScat, 150 nM GTP; compound 1 h at RT. Type of assay: biochemical. The method, boiled down:
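SOS1cat (564-1049)-driven loading of GTP-DY-647P1 onto KRAS G12D, read by HTRF with anti-GST Tb cryptate donor; compound preincubated with KRAS 1 h at RT. Final 5 nM KRAS, 20 nM SOScat, 150 nM GTP, pH 7.3 HEPES buffer; read up to 90 min at RT. Blanked to no-SOS1; 4-parameter fit of % inhibition.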

The test system of assay [2] is AGS (KRAS G12D) cells, phospho-ERK. Nature of the assay: pERK In Cell Western (ICW) assay (Method B). Type of assay: cell-based. The note with it: Homo sapiens, 3 hours. The method, boiled down:
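AGS cells seeded at 5,000/well, grown overnight, then treated 3 h at 37 °C with ½-log 10-point dilutions (top 10 μM). Fixed cells stained for phospho-ERK, normalized to DRAQ5 DNA signal and to DMSO control; IC50 from 4-parameter variable-slope fit.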

T1 sequence (P01116 2-169 isoform P01116-2 G12D): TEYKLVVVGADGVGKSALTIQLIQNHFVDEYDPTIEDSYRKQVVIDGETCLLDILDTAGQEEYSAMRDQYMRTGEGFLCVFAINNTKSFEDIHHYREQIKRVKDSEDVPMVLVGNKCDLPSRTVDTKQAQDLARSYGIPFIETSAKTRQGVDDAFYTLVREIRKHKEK

Consider `CN(C)C(=O)c1nn2c(c1Cl)CN(c1nc(OC[C@@]34CCCN3C[C@H](F)C4)nc3c1CN(C)[C@@]1(CCc4c(F)cccc41)C3)CCC2` [Compound 65, 3-chloro-5-[(7S)-4′-fluoro-2-[[(2R,8S)-2-fluoro-1,2,3,5,6,7-hexahydropyrrolizin-8-yl]methoxy]-6-methyl-spiro[5,8-dihydropyrido[4,3-d]pyrimidine-7,1′-indane]-4-yl]-N,N-dimethyl-4,6,7,8-tetrahydropyrazolo[1,5-a][1,4]diazepine-2-carboxamide], for which the half-inhibitory concentration (IC50) in assay [1] was < 10 nM; in assay [2], 0.01 to 0.1 µM.
Consider `CN(C)C(=O)c1nn2c(c1Cl)CN(c1nc(OC[C@@]34CCCN3C[C@H](F)C4)nc3c1CN(C)[C@@]1(CCc4cccc(Cl)c41)C3)CCC2` [Compound 69, 3-chloro-5-[(7S)-7′-chloro-2-[[(2R,8S)-2-fluoro-1,2,3,5,6,7-hexahydropyrrolizin-8-yl]methoxy]-6-methyl-spiro[5,8-dihydropyrido[4,3-d]pyrimidine-7,1′-indane]-4-yl]-N,N-dimethyl-4,6,7,8-tetrahydropyrazolo[1,5-a][1,4]diazepine-2-carboxamide], for which the values for the IC50 in assay [1] and in assay [2] were < 10 nM and 0.01 to 0.1 µM, respectively.
As to `CN(C)C(=O)c1cc2n(n1)CCCN(c1nc(OC[C@@]34CCCN3C[C@H](F)C4)nc3c1CN(C)[C@@]1(CCCc4ccccc41)C3)C2` [Compound 72, 5-[(7S)-2-[[(2R,8S)-2-fluoro-1,2,3,5,6,7-hexahydropyrrolizin-8-yl]methoxy]-6-methyl-spiro[5,8-dihydropyrido[4,3-d]pyrimidine-7,1′-tetralin]-4-yl]-N,N-dimethyl-4,6,7,8-tetrahydropyrazolo[1,5-a][1,4]diazepine-2-carboxamide], the figures for the IC50 in assay [1] and in assay [2] were < 10 nM and 0.1 to 1 µM, respectively.
Regarding `CN1Cc2c(nc(OC[C@@]34CCCN3C[C@H](F)C4)nc2N2CCCn3nc(N)c(Cl)c3C2)C[C@]12CCCc1ccccc12` [Compound 79, 3-chloro-5-[(7S)-2-[[(2R,8S)-2-fluoro-1,2,3,5,6,7-hexahydropyrrolizin-8-yl]methoxy]-6-methyl-spiro[5,8-dihydropyrido[4,3-d]pyrimidine-7,1′-tetralin]-4-yl]-4,6,7,8-tetrahydropyrazolo[1,5-a][1,4]diazepin-2-amine], the values for the IC50 in assay [1] and in assay [2] were < 10 nM and 1 to 10 µM, respectively.
Take `C#Cc1c(C(=O)N(C)C)nn2c1CN(c1nc(OC[C@@]34CCCN3C[C@H](F)C4)nc3c1CN(C)[C@@]1(CCCc4ccccc41)C3)CCC2` [Compound 81, 3-ethynyl-5-[(7S)-2-[[(2R,8S)-2-fluoro-1,2,3,5,6,7-hexahydropyrrolizin-8-yl]methoxy]-6-methyl-spiro[5,8-dihydropyrido[4,3-d]pyrimidine-7,1′-tetralin]-4-yl]-N,N-dimethyl-4,6,7,8-tetrahydropyrazolo[1,5-a][1,4]diazepine-2-carboxamide]: the IC50 in assay [1] is < 10 nM; in assay [2] it was 0.01 to 0.1 µM.
Consider `CN1Cc2c(nc(OC[C@@]34CCCN3C[C@H](F)C4)nc2N2C[C@H]3CC[C@@H](C2)N3)C[C@]12CCCc1ccccc12` [Compound 84, (7S)-4-[(1R,5S)-3,8-diazabicyclo[3.2.1]octan-3-yl]-2-[[(2R,8S)-2-fluoro-1,2,3,5,6,7-hexahydropyrrolizin-8-yl]methoxy]-6-methyl-spiro[5,8-dihydropyrido[4,3-d]pyrimidine-7,1′-tetralin]], for which the results for the IC50 in assay [1] and in assay [2] were < 10 nM and 1 to 10 µM, respectively.
The corresponding values for `Cc1nc(-c2nn3c(c2Cl)CN(c2nc(OC[C@@]45CCCN4C[C@H](F)C5)nc4c2CN(C)[C@@]2(CCCc5ccccc52)C4)CCC3)no1` [Compound 87, 3-[3-chloro-5-[(7S)-2-[[(2R,8S)-2-fluoro-1,2,3,5,6,7-hexahydropyrrolizin-8-yl]methoxy]-6-methyl-spiro[5,8-dihydropyrido[4,3-d]pyrimidine-7,1′-tetralin]-4-yl]-4,6,7,8-tetrahydropyrazolo[1,5-a][1,4]diazepin-2-yl]-5-methyl-1,2,4-oxadiazole] are < 10 nM and 0.1 to 1 µM.
In the same order, the values of `Cc1nnc(-c2nn3c(c2Cl)CN(c2nc(OC[C@@]45CCCN4C[C@H](F)C5)nc4c2CN(C)[C@@]2(CCCc5ccccc52)C4)CCC3)n1C` [Compound 90, (7S)-4-[3-chloro-2-(4,5-dimethyl-1,2,4-triazol-3-yl)-4,6,7,8-tetrahydropyrazolo[1,5-a][1,4]diazepin-5-yl]-2-[[(2R,8S)-2-fluoro-1,2,3,5,6,7-hexahydropyrrolizin-8-yl]methoxy]-6-methyl-spiro[5,8-dihydropyrido[4,3-d]pyrimidine-7,1′-tetralin]] are < 10 nM and 0.01 to 0.1 µM.
The corresponding values for `CN(C)C(=O)c1nn2c(c1Cl)CN(c1nc(OC[C@@]34CCCN3C[C@H](F)C4)nc3c1CN(C)[C@@]1(CCc4cccc(O)c41)C3)CCC2` [Compound 96, 3-chloro-5-[(7S)-2-[[(2R,8S)-2-fluoro-1,2,3,5,6,7-hexahydropyrrolizin-8-yl]methoxy]-7′-hydroxy-6-methyl-spiro[5,8-dihydropyrido[4,3-d]pyrimidine-7,1′-indane]-4-yl]-N,N-dimethyl-4,6,7,8-tetrahydropyrazolo[1,5-a][1,4]diazepine-2-carboxamide] are < 10 nM and 0.01 to 0.1 µM.
As for `CN(C)CC1(COc2nc3c(c(N4CCCn5nc(C(=O)N(C)C)c(Cl)c5C4)n2)CN(C)[C@@]2(CCCc4ccccc42)C3)CC1(F)F` (stereo partly drawn) [Compound 97, 3-chloro-5-[(7S)-2-[[1-[(dimethylamino)methyl]-2,2-difluoro-cyclopropyl]methoxy]-6-methyl-spiro[5,8-dihydropyrido[4,3-d]pyrimidine-7,1′-tetralin]-4-yl]-N,N-dimethyl-4,6,7,8-tetrahydropyrazolo[1,5-a][1,4]diazepine-2-carboxamide], the IC50 in assay [1] is < 10 nM; in assay [2] it was 1 to 10 µM.
The corresponding values for `CN1Cc2c(nc(OC[C@@]34CCCN3C[C@H](F)C4)nc2N2CCCn3nc(-c4nnnn4C)c(Cl)c3C2)C[C@]12CCCc1ccccc12` [Compound 99, (7S)-4-[3-chloro-2-(1-methyltetrazol-5-yl)-4,6,7,8-tetrahydropyrazolo[1,5-a][1,4]diazepin-5-yl]-2-[[(2R,8S)-2-fluoro-1,2,3,5,6,7-hexahydropyrrolizin-8-yl]methoxy]-6-methyl-spiro[5,8-dihydropyrido[4,3-d]pyrimidine-7,1′-tetralin]] are < 10 nM and 0.1 to 1 µM.

As a reminder, the IC50 is the concentration that inhibits the measured activity by half.
